ChEMBL document CHEMBL4138146, “A Schmidt rearrangement-mediated synthesis of novel tetrahydro-benzo[1,4]diazepin-5-ones as potential anticancer and antiprotozoal agents” (Eur J Med Chem, 2017)

What was measured:
Type in all cases: functional
OVCAR-3 = experiment: Growth inhibition of human OVCAR3 cells assessed as cell growth at 10 uM incubated for 48 hrs by sulforhodamine B assay relative to control; settings: OVCAR-3, 48 h, read-out: Activity
OVCAR-5 = experiment: Growth inhibition of human OVCAR5 cells assessed as cell growth at 10 uM incubated for 48 hrs by sulforhodamine B assay relative to control; settings: OVCAR-5, 48 h, read-out: Activity
NCI/ADR-RES = experiment: Growth inhibition of human NCI/ADR-RES cells assessed as cell growth at 10 uM incubated for 48 hrs by sulforhodamine B assay relative to control; settings: read-out: Activity
KM12 = experiment: Growth inhibition of human KM12 cells assessed as cell growth at 10 uM incubated for 48 hrs by sulforhodamine B assay relative to control; settings: KM12, 48 h, read-out: Activity
MDA-MB-468 = experiment: Growth inhibition of human MDA-MB-468 cells assessed as cell growth at 10 uM incubated for 48 hrs by sulforhodamine B assay relative to control; settings: MDA-MB-468, 48 h, read-out: Activity
SNB-19 = experiment: Growth inhibition of human SNB19 cells assessed as cell growth at 10 uM incubated for 48 hrs by sulforhodamine B assay relative to control; settings: SNB-19, 48 h, read-out: Activity
Malme-3M = experiment: Growth inhibition of human MALME-3M cells assessed as cell growth at 10 uM incubated for 48 hrs by sulforhodamine B assay relative to control; settings: read-out: Activity
SK-MEL-2 = experiment: Growth inhibition of human SK-MEL-2 cells assessed as cell growth at 10 uM incubated for 48 hrs by sulforhodamine B assay relative to control; settings: SK-MEL-2, 48 h, read-out: Activity
MDA-MB-231 = experiment: Growth inhibition of human MDA-MB-231 cells assessed as cell growth at 10 uM incubated for 48 hrs by sulforhodamine B assay relative to control; settings: MDA-MB-231, 48 h, read-out: Activity
SNB-75 = experiment: Growth inhibition of human SNB75 cells assessed as cell growth at 10 uM incubated for 48 hrs by sulforhodamine B assay relative to control; settings: SNB-75, 48 h, read-out: Activity
OVCAR-4 = experiment: Growth inhibition of human OVCAR4 cells assessed as cell growth at 10 uM incubated for 48 hrs by sulforhodamine B assay relative to control; settings: OVCAR-4, 48 h, read-out: Activity
UO-31 = experiment: Growth inhibition of human UO31 cells assessed as cell growth at 10 uM incubated for 48 hrs by sulforhodamine B assay relative to control; settings: UO-31, 48 h, read-out: Activity
HOP-92 = experiment: Growth inhibition of human HOP92 cells assessed as cell growth at 10 uM incubated for 48 hrs by sulforhodamine B assay relative to control; settings: HOP-92, 48 h, read-out: Activity
U-251 = experiment: Growth inhibition of human U251 cells assessed as cell growth at 10 uM incubated for 48 hrs by sulforhodamine B assay relative to control; settings: U-251, 48 h, read-out: Activity
NCI-H460 = experiment: Growth inhibition of human NCI-H460 cells assessed as cell growth at 10 uM incubated for 48 hrs by sulforhodamine B assay relative to control; settings: NCI-H460, 48 h, read-out: Activity
SK-MEL-28 = experiment: Growth inhibition of human SK-MEL-28 cells assessed as cell growth at 10 uM incubated for 48 hrs by sulforhodamine B assay relative to control; settings: SK-MEL-28, 48 h, read-out: Activity
NCI-H522 = experiment: Growth inhibition of human NCI-H522 cells assessed as cell growth at 10 uM incubated for 48 hrs by sulforhodamine B assay relative to control; settings: NCI-H522, 48 h, read-out: Activity
HOP-62 = experiment: Growth inhibition of human HOP62 cells assessed as cell growth at 10 uM incubated for 48 hrs by sulforhodamine B assay relative to control; settings: HOP-62, 48 h, read-out: Activity
LOX IMVI = experiment: Growth inhibition of human LOXIMVI cells assessed as cell growth at 10 uM incubated for 48 hrs by sulforhodamine B assay relative to control; settings: read-out: Activity
A498 = experiment: Growth inhibition of human A498 cells assessed as cell growth at 10 uM incubated for 48 hrs by sulforhodamine B assay relative to control; settings: A498, 48 h, read-out: Activity
OVCAR-8 = experiment: Growth inhibition of human OVCAR8 cells assessed as cell growth at 10 uM incubated for 48 hrs by sulforhodamine B assay relative to control; settings: OVCAR-8, 48 h, read-out: Activity
SK-OV-3 = experiment: Growth inhibition of human SKOV3 cells assessed as cell growth at 10 uM incubated for 48 hrs by sulforhodamine B assay relative to control; settings: SK-OV-3, 48 h, read-out: Activity
PC-3 = experiment: Growth inhibition of human PC3 cells assessed as cell growth at 10 uM incubated for 48 hrs by sulforhodamine B assay relative to control; settings: PC-3, 48 h, read-out: Activity
MDA-MB-435 = experiment: Growth inhibition of human MDA-MB-435 cells assessed as cell growth at 10 uM incubated for 48 hrs by sulforhodamine B assay relative to control; settings: MDA-MB-435, 48 h, read-out: Activity
T47D = experiment: Growth inhibition of human T47D cells assessed as cell growth at 10 uM incubated for 48 hrs by sulforhodamine B assay relative to control; settings: read-out: Activity
786-0 = experiment: Growth inhibition of human 786-0 cells assessed as cell growth at 10 uM incubated for 48 hrs by sulforhodamine B assay relative to control; settings: 786-0, 48 h, read-out: Activity
A549 = experiment: Growth inhibition of human A549/ATCC cells assessed as cell growth at 10 uM incubated for 48 hrs by sulforhodamine B assay relative to control; settings: A549, 48 h, read-out: Activity
SW-620 = experiment: Growth inhibition of human SW620 cells assessed as cell growth at 10 uM incubated for 48 hrs by sulforhodamine B assay relative to control; settings: SW-620, 48 h, read-out: Activity
Hs-578T = experiment: Growth inhibition of human Hs 578T cells assessed as cell growth at 10 uM incubated for 48 hrs by sulforhodamine B assay relative to control; settings: read-out: Activity
ACHN = experiment: Growth inhibition of human ACHN cells assessed as cell growth at 10 uM incubated for 48 hrs by sulforhodamine B assay relative to control; settings: read-out: Activity
HCT-116 = experiment: Growth inhibition of human HCT116 cells assessed as cell growth at 10 uM incubated for 48 hrs by sulforhodamine B assay relative to control; settings: HCT-116, 48 h, read-out: Activity
HT-29 = experiment: Growth inhibition of human HT-29 cells assessed as cell growth at 10 uM incubated for 48 hrs by sulforhodamine B assay relative to control; settings: HT-29, 48 h, read-out: Activity
CCRF-CEM = experiment: Growth inhibition of human CCRF-CEM cells assessed as cell growth at 10 uM incubated for 48 hrs by sulforhodamine B assay relative to control; settings: read-out: Activity

| Compound | growth at 10 µM (OVCAR-3) | growth at 10 µM (OVCAR-5) | growth at 10 µM (NCI/ADR-RES) | growth at 10 µM (KM12) | growth at 10 µM (MDA-MB-468) | growth at 10 µM (SNB-19) | growth at 10 µM (Malme-3M) | growth at 10 µM (SK-MEL-2) | growth at 10 µM (MDA-MB-231) | growth at 10 µM (SNB-75) | growth at 10 µM (OVCAR-4) | growth at 10 µM (UO-31) | growth at 10 µM (HOP-92) | growth at 10 µM (U-251) | growth at 10 µM (NCI-H460) | growth at 10 µM (SK-MEL-28) | growth at 10 µM (NCI-H522) | growth at 10 µM (HOP-62) | growth at 10 µM (LOX IMVI) | growth at 10 µM (A498) | further results |
| --- | --- | --- | --- | --- | --- | --- | --- | --- | --- | --- | --- | --- | --- | --- | --- | --- | --- | --- | --- | --- | --- |
| O=C1NCC(c2cc3ccc4ccccc4c3[nH]c2=O)Nc2ccccc21 (stereo unspecified) | 107% | 101% | 99% | 99.1% | 116% | 89.2% | 96.9% | 92.2% | 65.3% | 107% | 106% | 105% | 99.5% | 102% | 82.3% | 104% | 90.4% | 93.1% | 90.6% | 88.6% | growth at 10 µM (OVCAR-8): 78%; growth at 10 µM (SK-OV-3): 99.9%; growth at 10 µM (PC-3): 88.8%; growth at 10 µM (MDA-MB-435): 106%; growth at 10 µM (T47D): 85.7%; growth at 10 µM (786-0): 92.8%; growth at 10 µM (A549): 82.4%; growth at 10 µM (SW-620): 91.5%; growth at 10 µM (Hs-578T): 93.9%; growth at 10 µM (ACHN): 109%; growth at 10 µM (HCT-116): 44.1%; growth at 10 µM (HT-29): 95%; growth at 10 µM (CCRF-CEM): 81.5% |
| CCCCn1c(=O)c(C2CNC(=O)c3ccccc3N2)cc2ccc(Cl)cc21 (stereo unspecified) | 112% | 109% | 101% | 98.5% | 99.8% | 94.7% | 103% | 99.6% | 81.1% | 90% | 97.8% | 75.3% | 95.9% | 102% | 87% | 108% | 88.8% | 94% | 86.3% | 91.3% | growth at 10 µM (OVCAR-8): 99.3%; growth at 10 µM (SK-OV-3): 89.8%; growth at 10 µM (PC-3): 93%; growth at 10 µM (MDA-MB-435): 103%; growth at 10 µM (T47D): 93.6%; growth at 10 µM (786-0): 107%; growth at 10 µM (A549): 92.6%; growth at 10 µM (SW-620): 100%; growth at 10 µM (Hs-578T): 102%; growth at 10 µM (ACHN): 95.4%; growth at 10 µM (HCT-116): 73%; growth at 10 µM (HT-29): 98.7%; growth at 10 µM (CCRF-CEM): 103% |
